Experimental data taken from PMC8567104 (Frontiers in Pharmacology, 2021).
Several values for one entry are separate records, joined by “and”; a condition that tells them apart may be missing. Identical values can stand only once. Like-named read-outs stand apart in the source and are kept apart here.

Legend:
[1] = target: T1, hNav1.5_I408W_L409C_A410W (WCW mutant) (Homo sapiens, UniProt Q14524, A410W/I408W/L409C); assay: Open channel block, persistent current of inactivation-deficient WCW mutant; assay type: cell-based; settings: for Hill-coefficient: persistent current
T1 construct: expressed in transfected cells; host or cells: tsA201 (HEK293 derivative)
Protocol: (§1) Electrophysiological experiments were performed as previously described ([Ludolph et al., 2010]; [Föhr et al., 2021]). Briefly, tsA201 cells were used for experiments 24–48 h after transfection. Membrane currents were recorded in the whole-cell recording mode using an EPC-9 amplifier and Patchmaster software (v2x73; HEKA, Lambrecht, Germany ([Hamill et al., 1981])). Before recording, cells were rinsed twice with an extracellular standard solution containing (in mM): 140 NaCl, 5 KCl, 1.5 CaCl2, 1.0 MgCl2, 10 glucose and 12 HEPES (4-(2-hydroxyethyl)piperazine- 1-ethanesulfonic acid; pH 7.3). For establishing activation curves, the concentration of NaCl was reduced to 30 mM to achieve current amplitudes in the range of 1 nA. Lacking cations were replaced equimolar by N-Methyl-D-glucamine (NMDG). Patch pipettes were drawn from borosilicate glass with tip resistances of about 2 MΩ when filled with (in mM): 125 CsF, 10 NaCl, 10 EGTA (ethylene glycol-bis(2-aminoethylether)-N,N,N′,N′-tetraacetic acid), 10 HEPES; pH 7.2. To improve sealing, tips were briefly dipped into 2% dimethylsilane dissolved in dichloromethane.
(§2) Unless otherwise stated, the membrane potential was held at −140 mV from which channel activations were elicited by brief depolarizing pulses to −20 mV of 5 ms duration. In order to minimize voltage errors, the series resistance was compensated up to 80%. Cells with currents larger than 6 nA were excluded from evaluation. Specific protocols are illustrated in figure legends where appropriate.
(§3) Concentration-inhibition curves for estimating Kr (IC 50 at −140 mV; Figure 3), Ki (Figures 8, 13, 14), Ko (Figures 12, 17) or K app (Figure 9) were fitted to the Hill-equation.

hNav1.5 [2] = target: T2, hNav1.5 (Homo sapiens, UniProt Q14524); assay: Voltage-dependence of fast inactivation; assay type: cell-based; design: expressed in transfected cells; host or cells: tsA201 (HEK293 derivative)
Protocol: as §1, with “dichloromethane. […]” for “dichloromethane.”
FIGURE 5 Voltage-dependence of fast inactivation. […] Voltage-dependence of fast inactivation was determined by measuring sodium currents elicited by 5 ms depolarizations to −20 mV after conditioning pre-pulses for 500 ms to different potentials (range −140 to −45 mV).

hNav1.5 [3] = target: T2, hNav1.5; assay: Time-dependent development of block (inactivating pre-pulse to −20 mV of variable duration); assay type: cell-based; design: expressed in transfected cells; host or cells: tsA201 (HEK293 derivative); settings: for Amount of τ1 component / Amount of τ2 component / τ1 of block development / τ2 of block development: double exponential fit; for remaining current at the longest inactivation time: inactivation up to 30 s at −20 mV; for time constant of reduction of availability: single exponential, inactivation at −20 mV
Protocol: as §1, §2
Association (k on in µM^−1s^−1) and dissociation rates (k off in s^−1) were estimated from the slope and the y-intercept of a linear regression where the inverse of the fast time constants (1/τ) was plotted against the drug concentration [D] (Kuo et al., 1997). 1/τ=koff+kon∗[D] (9)
The corresponding dissociation constants were calculated according to: Kd=koff/kon (10)
Next, a set of experiments was performed to describe the time course of block development. The protocol is illustrated in Figure 7D. Briefly, after channel activation from a holding potential of −140 mV for control, ample time for full recovery at the holding potential was provided. Thereafter, the channels were inactivated for a variable duration (range: 25 ms–30 s) at a potential of −20 mV. Immediately before the test-pulse, channels were allowed to recover once more at the holding potential to eliminate or minimize the impact from fast inactivation. For evaluation, the current amplitudes obtained for test-pulses were related to their controls. […] For further evaluation, data were normalized with respect to control values (Figure 7B). […] The on-rate (k on ) was directly taken from the slope of the linear regression and the off-rate (k off ) was given by the y-intercept (Eq. 9, 10). For estimating the affinity for the inactivated state, the K i values were separately calculated for each cell according to the relation K i = k off /k on .
FIGURE 7 Time-dependent interaction. […] (B) Data from A, normalized with respect to control. […] Kon and koff values were taken from the slope and the y-intercept of the linear regression, respectively. […] (D) Experimental scheme. Starting from a holding potential of −140 mV, first a control pulse to […] was executed. Thereafter, ample time (2 s) was given to allow for full recovery before channels were inactivated for a variable duration at −20 mV. The test-pulse was carried out after a short recovery at −140 mV. For evaluation, test-pulse amplitudes were related to their controls.
FIGURE 15 Time-dependent interaction of imipridone derivatives.

hNav1.5 [4] = target: T2, hNav1.5; assay: Interaction with the inactivated state: steady-state parameters (20 s inactivation at −20 mV); assay type: cell-based; design: expressed in transfected cells; host or cells: tsA201 (HEK293 derivative); settings: for Hill-coefficient n: concentration-inhibition curve after 20 s inactivation at −20 mV
Protocol: as §1, §2, §3
I D and I C are the current amplitudes in the presence and absence of the drug, where [D] is the concentration of the drug.
To this end, a double pulse protocol was used as outlined by Figure 8B. […] To minimize drift effects during these long-lasting experiments, each run included its own control. Thus, drug effects as measured by the test-pulse were related to the timely executed control activation. […]

hNav1.5 [5] = target: T2, hNav1.5
Protocol: as §1, §2

hNav1.5 [6] = target: T2, hNav1.5; settings: 40 µM (highest concentration tested); holding potential −140 mV; 30 s preincubation
Protocol: as §1
Unless otherwise stated, the membrane potential was held at −140 mV from which channel activations were elicited by brief depolarizing pulses to −20 mV of 5 ms duration. In order to minimize voltage errors, the series resistance was compensated up to 80%. […]

hNav1.5 [7] = target: T2, hNav1.5; assay: cell-based
Protocol: as §1, §2

hNav1.5 [8] = target: T2, hNav1.5; settings: 10 µM
Protocol: as §1, §2
Recovery time constants were estimated from double or triple exponential fits according to: I/Imax=1−a1∗e^(−t/τ1)−a2∗e^(−t/τ2)−a3∗e^(−t/τ3) (11)
Variable identifiers have the same meaning as before, with a 1 + a 2 + a 3 = 1.
If a drug interacts with the inactivated state (fast or slow), it is expected that also recovery from inactivation is affected. We analyzed this aspect by the use of a tri-pulse experiment (Figure 10B). After an initial control pulse, sufficient time was provided for full recovery. Next channels were inactivated for 500 ms at −20 mV. The test-pulse was initiated after channels had been allowed to recover at a potential of −140 mV for a variable time (range: 0.2 ms to 2.7 s). For evaluation, the current amplitudes of the test-pulses were related to their controls and plotted versus the recovery time (Figure 10A). To describe the time course of recovery, data points were fitted with double exponential functions (Eq. 11). […] In order to estimate recovery from slow inactivation, the experimental scheme was modified to a prolonged inactivation time (10 s) and an expansion of the recovery time up to 32.8 s (Figure 10D).
FIGURE 10 Recovery from inactivation. (A) Recovery from fast inactivation. The relative amount of available channels versus the recovery time at −140 mV is illustrated. Solid lines represent fits with two exponential functions according to Eq. 11. (B) Experimental scheme. After an initial control pulse, inactivation was performed at −20 mV for 500 ms. The test-pulse was applied after a varying time of recovery. For evaluation, current amplitudes of the test-pulses were related to their controls.

hNav1.5 F1760K mutant = hNav1.5 F1760K mutant (Homo sapiens, UniProt Q14524, F1760K, form not given); settings: inactivated channels
Protocol: as §1, §3

hNav1.5 N406C mutant = hNav1.5 N406C mutant (Homo sapiens, UniProt Q14524, N406C); settings: inactivated channels
Protocol: as §1, §3

[9] = design: method as in Allen et al., 2016; settings: weekly oral dose of 625 mg; patients; ref Allen et al., 2016; cited from earlier work

O=C1C2=C(CCN(Cc3ccccc3)C2)N2CCN=C2N1Cc1ccc(C(F)(F)F)cc1 [ONC212]
Hill-coefficient [1]: 1.4 ± 0.2 | shift of midpoints of fast inactivation (hNav1.5 [2]; 10 µM, 500 ms pre-pulses, corrected for drug independent shift): −4.7 ± 0.4 mV and −4.7 ± 0.42 mV | Amount of τ1 component (hNav1.5 [3]; 2.5 µM): 8.8 ± 4.5% | Amount of τ2 component (hNav1.5 [3]; 2.5 µM): 57.4± 6.6% | τ1 of block development (hNav1.5 [3]; 2.5 µM): 0.2 ± 0.06 s | τ2 of block development (hNav1.5 [3]; 2.5 µM): 4.6 ± 0.95 s | Amount of τ1 component (hNav1.5 [3]; 10 µM): 45.2 ± 6.5% | Amount of τ2 component (hNav1.5 [3]; 10 µM): 46.9 ± 7.2% | τ1 of block development (hNav1.5 [3]; 10 µM): 0.1 ± 0.03 s | τ2 of block development (hNav1.5 [3]; 10 µM): 2.2 ± 0.27 s | IC50 (hNav1.5 [4]; after 20 s inactivation at −20 mV, short recovery at −140 mV, wild type, read-out: half-maximal inhibition (IC50), representing the affinity for the inactivated state (Ki)): 2500 ± 700 nM | Hill-coefficient n (hNav1.5 [4]): 1.5 ± 0.1

Cc1ccccc1CN1C(=O)C2=C(CCN(Cc3ccccc3)C2)N2CCN=C12 [TIC10]
current amplitude in the presence of TIC10 compared to control (hNav1.5 [5]; 10 µM, holding potential −90 mV, depolarization to −20 mV): about half of its size | slope (k) of activation curve (hNav1.5 [5]; in the presence of 10 µM, control 7.2 ± 0.6 mV): 7.9 ± 0.8 mV | potential of half-maximal activation (midpoint of activation curve) (hNav1.5 [5]; in the presence of 10 µM, control −43.1 ± 2.9 mV): −44.8 ± 2.8 mV | remaining current (of control) (hNav1.5 [6]): 93.2 ± 4.3% | potential of half-maximal slow inactivation (hNav1.5 [7]; 10 µM, 10 s pre-pulses, control −42.9 ± 5.0 mV): −92.7 ± 7.0 mV | slope of slow inactivation curve (hNav1.5 [7]; 10 µM, control 21.5 ± 2.7 mV): 12.8 ± 0.9 mV | availability (remaining current amplitude) at pre-pulse potential 0 mV (hNav1.5 [7]; 10 µM, control 45.6 ± 10.9%): 4.7 ± 2.8% | inhibition at 10 µM (hNav1.5 [7]; read-out: inhibition normalized to control at 0 mV): 89.7 ± 6.5% | inhibition at 10 µM (hNav1.5 [7]; read-out: inhibition normalized to control at −40 mV): 88.3 ± 5% | Amount of τ1 component (hNav1.5 [8]; 10 s inactivation): 36.3 ± 16.0% | Amount of τ2 component (hNav1.5 [8]; 10 s inactivation): 62.2 ± 15.7% | τ1 for recovery from slow-inactivation (hNav1.5 [8]; 10 s inactivation): 128.1 ± 80.3 ms | τ2 for recovery from slow-inactivation (hNav1.5 [8]; 10 s inactivation): 548.4 ± 287.4 ms | proportion of fast recovering channels (hNav1.5 [8]; 500 ms inactivation at −20 mV, recovery at −140 mV, control 92.6 ± 4.0%): 75.6 ± 7.0% | recovery time constant τ1 (hNav1.5 [8]; control 1.4 ± 0.6 ms): 2.3 ± 1.2 ms | recovery time constant τ2 (hNav1.5 [8]; control 23.6 ± 12.0 ms): 267.6 ± 73.1 ms | Hill-coefficient [1]: 0.9 ± 0.1 | effect on transient current (resting state) ([1]; up to 40 µM): hardly affected | Hill-coefficient (hNav1.5 F1760K mutant; F1760K mutant): 1.5 ± 0.1 | reduction of affinity of F1760K mutant compared to wild type (hNav1.5 F1760K mutant): more than 20 fold | Hill-coefficient (hNav1.5 N406C mutant): 1.2 ± 0.1 | maximal plasma concentration [9]: 4.3 µM | slope of fast inactivation curve (hNav1.5 [2]; in the presence of 10 µM, 5.3 ± 0.9 mV in the absence): 5.4 ± 0.9 mV | remaining current at the longest inactivation time (hNav1.5 [3]; 2.5 µM, control 59.2 ± 7.7%): 46.0 ± 4.8% | time constant of reduction of availability (hNav1.5 [3]; 2.5 µM, control 10.1 ± 2.0 s): 5.3 ± 1.9 s | remaining current at the longest inactivation time (hNav1.5 [3]; 10 µM): 16.9 ± 6.4% | time constant of reduction of availability (hNav1.5 [3]; 10 µM): 2.0 ± 0.8 s | Hill-coefficient n (hNav1.5 [4]): 1.2 ± 0.1
